Measured values from patent US20250099468A1, “TREATING LIVER DISORDERS WITH AN SSAO INHIBITOR” (Terns Pharmaceuticals, Inc., priority 2021, published 2025).
“Also recorded” adds a separate entry of the source. Values belong to the compound of their own block, whether it stands above or below them.

Tests used:
[1] = target: T1, MAO-A (Homo sapiens, UniProt P21397); experiment: Biochemical activity, MAO-A; details: all single dose levels (1-10 mg)
T1 sequence (P21397 1-527): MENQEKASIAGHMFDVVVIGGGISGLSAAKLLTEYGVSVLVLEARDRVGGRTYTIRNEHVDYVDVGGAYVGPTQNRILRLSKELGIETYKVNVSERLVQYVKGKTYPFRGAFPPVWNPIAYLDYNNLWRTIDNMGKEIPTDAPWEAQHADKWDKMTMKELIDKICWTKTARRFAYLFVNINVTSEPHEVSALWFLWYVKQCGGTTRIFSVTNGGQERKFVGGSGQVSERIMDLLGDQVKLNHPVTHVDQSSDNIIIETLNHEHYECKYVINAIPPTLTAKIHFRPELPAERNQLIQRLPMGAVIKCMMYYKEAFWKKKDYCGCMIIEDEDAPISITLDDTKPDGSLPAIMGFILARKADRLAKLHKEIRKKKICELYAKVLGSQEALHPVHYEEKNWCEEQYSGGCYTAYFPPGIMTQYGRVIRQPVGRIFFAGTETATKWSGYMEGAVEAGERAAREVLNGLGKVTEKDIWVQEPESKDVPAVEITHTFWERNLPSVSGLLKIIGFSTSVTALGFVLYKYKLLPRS

[2] = target: T2, MAO-B (Homo sapiens, UniProt P27338); experiment: Biochemical activity, MAO-B; details: all single dose levels (1-10 mg)
T2 sequence (P27338 1-520): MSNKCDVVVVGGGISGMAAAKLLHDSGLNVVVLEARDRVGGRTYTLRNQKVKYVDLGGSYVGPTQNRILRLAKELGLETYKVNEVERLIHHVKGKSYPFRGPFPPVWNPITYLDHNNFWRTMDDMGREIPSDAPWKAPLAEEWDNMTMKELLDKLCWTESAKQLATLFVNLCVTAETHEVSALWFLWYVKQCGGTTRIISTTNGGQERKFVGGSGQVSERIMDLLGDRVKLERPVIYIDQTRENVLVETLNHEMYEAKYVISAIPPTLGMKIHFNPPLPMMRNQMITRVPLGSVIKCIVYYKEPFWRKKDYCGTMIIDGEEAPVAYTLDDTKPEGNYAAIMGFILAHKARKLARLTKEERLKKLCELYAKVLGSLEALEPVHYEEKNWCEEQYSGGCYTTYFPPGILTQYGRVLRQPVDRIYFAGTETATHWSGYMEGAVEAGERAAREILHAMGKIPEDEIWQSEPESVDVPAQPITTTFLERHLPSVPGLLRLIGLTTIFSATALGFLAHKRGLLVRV

[3] = Single-ascending dose clinical trial, plasma PK; assay type: in vivo, human; details: for plasma PK exposure increase with dose: single dose, between 3 and 10 mg
Experimental: (§1) Safety was assessed for 7 (±3) days after dosing.
(§2) Plasma PK parameters were determined by non-compartmental analysis.

[4] = target: T3, plasma SSAO (Homo sapiens, UniProt Q16853); experiment: Single-ascending dose trial, plasma SSAO / amine oxidase activity; assay type: in vivo
T3 construct: from tissue; host or cells: human plasma
T3 sequence (Q16853 29-763 limits assumed): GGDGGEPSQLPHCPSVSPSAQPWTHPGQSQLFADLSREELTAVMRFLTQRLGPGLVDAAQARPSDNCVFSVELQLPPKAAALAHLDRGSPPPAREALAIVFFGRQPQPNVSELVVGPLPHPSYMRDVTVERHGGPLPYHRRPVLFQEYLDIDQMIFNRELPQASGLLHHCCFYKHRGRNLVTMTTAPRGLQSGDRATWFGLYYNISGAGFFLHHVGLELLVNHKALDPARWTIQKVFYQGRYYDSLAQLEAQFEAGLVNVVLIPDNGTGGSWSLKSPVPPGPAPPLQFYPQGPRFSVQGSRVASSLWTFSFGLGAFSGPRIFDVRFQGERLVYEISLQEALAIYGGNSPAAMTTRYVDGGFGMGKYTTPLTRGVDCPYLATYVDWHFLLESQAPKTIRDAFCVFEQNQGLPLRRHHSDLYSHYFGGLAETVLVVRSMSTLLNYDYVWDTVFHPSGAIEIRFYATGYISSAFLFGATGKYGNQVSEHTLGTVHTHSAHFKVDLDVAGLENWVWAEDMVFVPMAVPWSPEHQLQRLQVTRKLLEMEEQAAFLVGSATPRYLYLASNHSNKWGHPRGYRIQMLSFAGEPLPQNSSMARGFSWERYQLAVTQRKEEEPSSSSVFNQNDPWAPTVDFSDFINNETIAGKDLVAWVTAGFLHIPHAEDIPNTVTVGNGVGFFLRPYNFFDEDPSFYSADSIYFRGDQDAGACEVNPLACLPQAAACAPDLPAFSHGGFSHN
Experimental: as §1, §2
SSAO-specific amine oxidase levels in plasma were determined using a kinetic-based assay essentially as described previously (Schilter et al). Endogenous monoamine oxidases A and B were inhibited by adding pargyline to plasma samples prior to measuring H2O2 generation levels in placebo and active recipients.

[5] = system: plasma methylamine; experiment: Single-ascending dose trial, plasma methylamine (MMA); assay type: in vivo, human; details: single dose 1-10 mg
Experimental: as §1

[6] = Multiple-ascending dose clinical trial, safety; assay type: in vivo, human
Experimental: (§3) A multiple-ascending dose clinical trial of Compound 1 was performed.

[7] = Multiple-ascending dose clinical trial, plasma PK; assay type: in vivo, human
Experimental: as §3

[8] = target: T3, plasma SSAO; experiment: Multiple-ascending dose trial, plasma SSAO / amine oxidase activity; assay type: in vivo
Experimental: as §3

[9] = system: plasma methylamine; experiment: Multiple-ascending dose trial, plasma methylamine; assay type: in vivo, human
Experimental: as §3

[10] = NASH patient study Part 1, safety; assay type: in vivo, human; details: 10 mg QD 12 weeks, NASH patients
Experimental: (§4) Part 1 interim analysis primary endpoint was safety assessed by adverse events (AEs) and laboratory tests; percent change from baseline (BL) in plasma VAP-1 activity was a secondary endpoint. Exploratory imaging and blood-based biomarkers of liver inflammation and fibrosis were also assessed. Analyses of change (or percent change) from baseline used an ANCOVA model with change (or percent change) from baseline as the dependent variable including treatment group and randomization strata as fixed effects and baseline as a covariate.

[11] = target: T4, plasma VAP-1 (Homo sapiens, UniProt Q16853); experiment: NASH patient study Part 1, plasma VAP-1 activity; assay type: in vivo; details: 10 mg QD, through week 12
T4 construct: from tissue; host or cells: human plasma
T4 sequence (Q16853 29-763 limits assumed): T3 sequence (Q16853 29-763 limits assumed)
Experimental: as §4

[12] = system: NASH and inflammation biomarkers; experiment: NASH patient study Part 1, imaging and blood biomarkers of liver inflammation and fibrosis; assay type: in vivo, human
Experimental: Plasma samples are collected for measurement of plasma concentrations of study drug and metabolites. Urine samples are collected for measurement of urine concentrations of study drug and metabolites. Patients who are not participating in the PK/PD sub-study undergo trough PK sampling only. Blood collection for NASH/fibrosis markers (CK-18 (M30 and M65), PIIINP, TIMP-1, HA, PRO-C3, and C3M) and inflammation markers (hs-CRP, IL-6, ICAM-1, and VCAM-1) are also conducted. The following exploratory fibrosis scores may also be calculated: FIB-4, enhanced liver fibrosis (ELF), and NAFLD. The PRO-C3/C3M ratio may be calculated. Patients are monitored for adverse events.
as §4

[13] = system: rat model of NASH; experiment: Rat model of NASH; assay type: in vivo
[14] = Single-ascending dose clinical trial, safety; assay type: in vivo, human; details: single dose 6 mg or placebo (n = 8)
Experimental: as §1

[15] = 1, 4 mg QD 7 days, 10 mg QD 14 days

Cmax relative to IC50 for MAO-A (times lower) [1]: more than 800 times
Cmax relative to IC50 for MAO-B (times lower) [2]: more than 800 times
plasma PK exposure increase with dose [3]: greater than dose proportional
duration of SSAO activity inhibition after a single dose ([4]; single dose 1 mg to 10 mg): up to seven days
duration of suppression of plasma SSAO amine oxidase activity after a single dose ([4]; single dose 1-10 mg): up to 1 week
plasma PK exposure increases between dose groups ([7]; Day 1, 1, 4, 10 mg): greater than dose proportional
accumulation after multiple QD doses ([7]; each dose level): significant accumulation
duration of near complete inhibition of plasma SSAO amine oxidase activity after cessation of dosing ([8]; after multiple QD doses): up to 2 weeks
inhibition of total amine oxidase ([8]; plasma, single and multiple doses): incomplete
Structure (SMILES): COC1CCN(c2ncc(OC/C(=C/F)CN)cn2)CC1 [Compound 1, (E)-3-fluoro-2-(((2-(4-methoxypiperidin-1-yl)pyrimidin-5-yl)oxy)methyl)prop-2-en-1-amine]
plasma methylamine (MMA) levels [5]: increased; also recorded: Dose-dependent increases
discontinuation due to an adverse event [6, 15]: No subject discontinued
severity of adverse events [6, 15]: mild (grade 1)
safety and tolerability (laboratory, vital signs, ECG) ([6]; up to 10 mg QD for 14 days, healthy subjects): no notable findings; also recorded: safe and well tolerated
plasma methylamine levels ([9]; Day 1): increased in a dose proportional manner
plasma methylamine levels ([9]; last day of administration, after multiple doses): further increases
severity of AEs [10]: mild or moderate
tolerability [10]: well-tolerated
inhibition of plasma VAP-1 activity [11]: sustained suppression; also recorded: near complete inhibition
changes in cT1 from baseline to end of treatment ([12]; 10 mg QD 12 weeks): no significant changes
difference from placebo in change from BL cT1, liver fat fraction, liver enzymes, or cytokeratin-18 ([12]; 10 mg QD 12 weeks): no statistically significant differences
ICAM-1 decrease relative to BL, mean (±SE) ([12]; 10 mg QD, Week 8): 34.85 (56.03) μg/L
TIMP-1 decrease relative to BL, mean (±SE) ([12]; 10 mg QD, Week 12): 29.58 (9.26) ng/ml
VCAM-1 decrease relative to BL, mean (±SE) ([12]; 10 mg QD, Week 12): 24.327 (20.5850) μg/L
liver inflammation and fibrosis [13]: decreases liver inflammation and fibrosis

plasma PK exposure increase with dose [3]: greater than dose proportional
clearance from plasma ([3]; single doses): rapidly cleared from plasma
Structure (SMILES): COC1CCN(c2ncc(OC/C(=C/F)CN)cn2)CC1.Cc1ccc(S(=O)(=O)O)cc1 [tosylate salt of Compound 1]
Subject incidence of any TEAE [14]: 2 (25)
TEAE frequency: contact dermatitis [14]: 2 (25)
TEAE frequency: sore throat [14]: 1 (12.5)
